Data published in ChEMBL document CHEMBL5727076, “GDF-8 inhibitors” (2018).

How the values were obtained:
TGF-beta receptor type-1 = TGF-beta receptor type-1 (Homo sapiens, UniProt P36897, T204D); assay: The reaction is incubated for 1 hour at room temperature and the HTRF signal was measured on an Envision plate reader (Ex: 340 nm; Em: 520 nm/495 nm). Inhibition data were calculated by comparison to no enzyme control reactions for 100% inhibition and vehicle-only reactions for 0% inhibition. The final concentration of reagents in the assay are 1 nM HIS-TGFβR1 T204D or HIS-TGFβR2 WT, 0.2 nM anti-HIS detection antibody, labeled small molecule probe (at Kd) and 0.5% DMSO. Dose response curves were generated to determine the concentration required inhibiting 50% of kinase activity (IC50). Compounds were dissolved at 10 mM in dimethylsulfoxide (DMSO) and evaluated at eleven concentrations.
TGF-beta receptor type-1, sequence (P36897 34-503 T204D limits assumed): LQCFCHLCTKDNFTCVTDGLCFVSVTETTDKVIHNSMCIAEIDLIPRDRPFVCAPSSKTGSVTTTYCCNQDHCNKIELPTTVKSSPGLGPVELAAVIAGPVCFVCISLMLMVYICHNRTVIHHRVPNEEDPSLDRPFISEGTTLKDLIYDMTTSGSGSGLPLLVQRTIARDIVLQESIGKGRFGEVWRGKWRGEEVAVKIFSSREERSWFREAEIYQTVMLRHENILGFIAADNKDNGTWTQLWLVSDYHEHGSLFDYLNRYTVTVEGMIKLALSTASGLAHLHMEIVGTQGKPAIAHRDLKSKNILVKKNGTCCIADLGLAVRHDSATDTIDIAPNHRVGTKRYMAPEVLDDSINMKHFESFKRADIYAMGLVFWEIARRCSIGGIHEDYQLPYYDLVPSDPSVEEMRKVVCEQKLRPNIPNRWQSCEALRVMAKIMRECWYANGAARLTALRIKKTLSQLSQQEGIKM

TGF-beta receptor type-2 = TGF-beta receptor type-2 (Homo sapiens, UniProt P37173); assay: Compounds were dissolved at 10 mM in dimethylsulfoxide (DMSO) and evaluated at eleven concentrations.
TGF-beta receptor type-2, sequence (P37173 whole entry): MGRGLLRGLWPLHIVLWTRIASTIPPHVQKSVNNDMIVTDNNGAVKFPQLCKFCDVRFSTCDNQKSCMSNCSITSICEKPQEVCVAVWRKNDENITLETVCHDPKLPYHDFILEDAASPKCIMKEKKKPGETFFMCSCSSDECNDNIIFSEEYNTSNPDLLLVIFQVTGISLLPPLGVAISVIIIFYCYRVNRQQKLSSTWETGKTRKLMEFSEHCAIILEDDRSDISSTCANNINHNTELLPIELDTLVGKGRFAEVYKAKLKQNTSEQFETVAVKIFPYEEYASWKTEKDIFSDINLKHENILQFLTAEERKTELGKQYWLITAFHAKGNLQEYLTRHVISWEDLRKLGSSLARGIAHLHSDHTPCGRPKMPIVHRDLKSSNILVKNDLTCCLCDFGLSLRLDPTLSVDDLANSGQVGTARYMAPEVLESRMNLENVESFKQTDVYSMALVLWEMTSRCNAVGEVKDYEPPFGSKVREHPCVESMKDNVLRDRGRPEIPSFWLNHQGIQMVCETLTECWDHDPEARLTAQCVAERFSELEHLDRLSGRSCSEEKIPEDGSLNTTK

IC50 (TGF-beta receptor type-1)	IC50 (TGF-beta receptor type-2)	SMILES
2 nM	> 15000 nM	CNC(=O)c1cnc2ccc(-c3cccnc3-c3cccc(C)n3)cn12
4 nM		Cc1cccc(-c2ncccc2-c2ccc3ncc(C(=O)O)n3c2)n1
11 nM	> 15000 nM	N#Cc1cnc2ccc(-c3cccnc3-c3cccc(C(F)(F)F)n3)cn12
6 nM	> 15000 nM	Cc1cccc(-c2ncccc2-c2ccn3ncc(C(N)=O)c3n2)n1
